Experimental findings from patent US20110257108A1, “SYNTHESIS AND ACTIVITY OF LACTOSE ESTERS” (Utah State University, priority 2010, published 2011) are described below.

For series [1], the system named is Enterococcus faecalis (ATCC 700802). Description: Microbial growth inhibition (microtiter OD 600 nm, 48 hours). Format: cell-based. Conditions: gram positive, FIG. 7. The method, then:
(§1) Referring now to FIG. 7 and Table 4, the microbial inhibitory characteristics of LML synthesized and purified as described above, were investigated against Enterococcus faecalis (ATCC 700802), Listeria monocytogenes, Staphyloccus suis, Escherichia coli H7P:0157H7 (ATCC 35150), Salmonella typhimurium (ATCC 700720) and Klebsiella pneumoniae (ATCC 700721). Cultures were grown in appropriate microbial media with antibiotics and diluted to 10^5 colony forming units (CFU) per mL. Cultures (0.5 mL or 10^2.5 CFU total) were added to microtiter wells and an initial optical density (OD) at 600 nm was recorded. For treatments, LML in concentrations ranging from 0.001 to 0.1% was added to individual microtiter wells and the OD was again measured after 48 hours. Controls were treated similarly, but without the addition of LML. Percent growth inhibition was determined by comparing the OD reading for the controls and treatments.

For series [2], the system named is Escherichia coli H7P:0157H7 (ATCC 35150). Described as above. Format: cell-based. Conditions: gram negative; LML 0.001 to 0.1%; FIG. 7. The protocol: as §1
Series [3] concerns Klebsiella pneumoniae (ATCC 700721). The series is described as above. Type of series: cell-based. Conditions: gram negative; LML 0.001 to 0.1%; FIG. 7. The method, then:
as §1

The subject of another series is Listeria monocytogenes. Described as above. Format: cell-based. Conditions: gram positive, FIG. 7. The protocol:
as §1

Series [4] relates to Salmonella typhimurium (ATCC 700720). The description is as above. Type of series: cell-based. Conditions: gram negative; LML 0.001 to 0.1%; FIG. 7. The protocol: as §1
The subject of another series is Staphyloccus suis. The series is described as above. Type of series: cell-based. Conditions: gram positive, FIG. 7. The method, then: as §1
Series [5] concerns clinical isolates of Listeria monocytogenes. In words: Microbial inhibitory studies with clinical isolates (microtitre well plate method, plate counts). Format: cell-based. From the text:
Referring now to FIGS. 8 through 12, in light of the microbial inhibitory effect shown with Listeria monocytogenese, we obtained clinical isolates of Listeria monocytogenes from the International Life Science Institute Database, Cornell University and tested LM at the same concentrations as listed above with the clinical isolate. Inhibitory effects against clinical isolates of Listeria monocytogenese are shown in FIGS. 8, 9, 10, 11 and 12 (inhibition shown is percent growth inhibition). The clinical isolates are described in Table 5.
Still referring to FIGS. 8 through 12, microbial inhibitory studies were carried out in microtitre well plate method. Cultures were grown in appropriate microbial media with antibiotics and diluted to 10^5 colony forming units (CFU) per mL. Cultures (0.5 mL or 10^2.5 CFU total) were added to microtiter wells and an initial optical density (OD) at 600 nm was recorded. The studies were conducted by adding different concentrations of LML as described above with appropriate controls (media only, media plus cells, media plus cells and 0.1% Polysorbate 80, same amount of ethanol as in the vol of LML plus 0.1% polysorbate 80 with cells). Plate counts of all controls and treatments were done. For each strain and treatment, the experiments were done 6 times and replicated at least once. Data shown has a coefficient of variation of less than 10%. […]

How the values of series [6] were obtained: Aliquots, 600 μL, of each filtered sample were dried by a Savant SpeedVac system. The dry sugar in each tube was re-suspended in 600 μL de-ionized water. […] The amount of sugar in each sample was determined by comparing peak areas to the lactose-in-water control.

For lactose monolaurate [LML], the growth inhibition result in series [1] (LML 0.005% and less) is given as “limited inhibition”; in series [1] (LML 0.1% (1 mg/mL)), “inhibited”; in the series on Listeria monocytogenes (LML 0.005% and less) it was “limited inhibition”; in the series on Listeria monocytogenes (LML 0.1% (1 mg/mL)) it was “inhibited”; in the series with Staphyloccus suis (LML 0.005% and less), “limited inhibition”; in the series on Staphyloccus suis (LML 0.1% (1 mg/mL)), “inhibited”. The susceptibility to inhibition result in series [2], in series [3] and in series [4] was “minimal susceptibility” each time. Besides, the percent growth inhibition in series [5] (LML 1.0 mg/mL, each strain (J1-177, C1-056, N3-013, R2-499, N1-227), with 0.1% Polysorbate 80, versus control with ethanol and tween) is on record as 70-90%. Also, the “type of inhibition (plate counts)” value in series [5] (plate counts of treatments compared to the controls) is “bacterial static”.

As to `OC[C@H]1O[C@@](CO)(O[C@H]2O[C@H](CO)[C@@H](O)[C@H](O)[C@H]2O)[C@@H](O)[C@@H]1O` [sucrose], in series [6], the “solubility in 2M2B” value was 700-800 micromol/L solvent and the “solubility in the other solvents” value is 50-200 micromol/L solvent.
